Source: patent US4975449A, “Topical treatment of glaucoma with 2-benzothiazolesulfonamide derivative” (University of Iowa Research Foundation, priority 1983, dated 1990)
“And” between values parts separate entries of the source, which are not always exact repeats. Equal entries are not always repeated. “Also recorded” adds a separate entry of the source.

Key:
[1] = tested on: rabbit eyes (intraocular pressure); test: Salted Rabbit Test (IOP in rabbits fed a sodium enriched diet); assay type: in vivo, adult white rabbits; settings: for Lowering of IOP (in words): 6-chloro: 30, 60 and 120 minutes, ethoxzolamide: any time point after dosing; for Average IOP change: 1% w/v suspension topical; for Average difference in IOP between both eyes just prior to dosing: t = 0, pre-dose; for Statistical significance of IOP change: N.S. = non-significant
[2] = tested on: rabbit eyes (intraocular pressure); test: as above; assay type: in vivo, adult white rabbits; settings: for IOP change, (IOPDET - IOPCET) - (IOPDEO - IOPCEO) / Difference in IOP between both eyes just prior to dosing (IOPDEO - IOPCEO): individual rabbit; for IOP change, (IOPDET - IOPCET) - (IOPDEO - IOPCEO): 1% w/v suspension topical; for Difference in IOP between both eyes just prior to dosing (IOPDEO - IOPCEO): t = 0, pre-dose; for Effectiveness in lowering IOP, comparison (in words): the two rabbit models of Examples 10 and 11
Description: The treated eye was selected randomly, whereas, the fellow eye received placebo; the observer was masked.
In particular, a 1% w/v suspension of 6-chloro-2-benzothiazolesulfonamide analog was prepared in a standard vehicle consisting of aqueous pH 7.8 phosphate buffer, 0.05% w/v tween 80, and sufficient NaC1 to make the preparation isotonic. One drop, followed by two drops each at one minute intervals, was applied to one eye of normal adult white rabbits. Fifteen rabbits were used in the experiment. The treated eye was selected randomly, whereas, the fellow eye received placebo. The observer was masked. The intraocular pressure (IOP) was measured with an Alcon […] pneumotonometer. A drop of local anesthetic was applied just prior to making the measurement. The IOP was measured in both rabbit eyes at 0, 30, 60, 90 and 120 minutes following instillation of the new antiglaucoma agent.

[3] = tested on: rabbit eyes (intraocular pressure); test: Rabbit Eye Tests (In-Vivo IOP Determinations), Water Loading Model; set-up: species or system New Zealand albino rabbits; settings: for drop in IOP (right eye) compared to no drug control: 6-ethoxy-N-methyl: at 90 and 120 minutes, 6-chloro: 15 through 90 minutes, ethoxzolamide: any time point
Description: New Zealand albino rabbits either sex and weighing 1.9-2.4kg were used. Control IOP measurements were made by applanation tonometry (Alcon Applanation Pneumatonograph®) prior to water loading and drug administration. The rabbits were first anesthelized and then water loaded using 100 ml/kg (sterile water for injection). The water dose was given intraperitoneally over 15-20 minutes Four test formulations were administered topically to the right eye of each rabbit immediately following water loading. The vehicle was administered to the left eye of each rabbit. The test formulations contained 1% suspensions of ethoxzolamide, and the other indicated compounds, and a vehicle (coded E). The vehicle contained a pH 7.2 phosphate buffer and 0.05% polysorbate 80 (Tween-80®). IOP measurement were made in right and left eyes at 15, 30, […], 60, 90, 120 and 180 minutes after topical administration.

[4] = 15 min after topical administration, 1% suspension, 50 ul q 2 min × 6, right eye
[5] = 30 min after topical administration, 1% suspension, 50 ul q 2 min × 6, right eye
[6] = 60 min after topical administration, 1% suspension, 50 ul q 2 min × 6, right eye
[7] = 90 min after topical administration, 1% suspension, 50 ul q 2 min × 6, right eye
[8] = 120 min after topical administration, 1% suspension, 50 ul q 2 min × 6, right eye
[9] = 180 min after topical administration, 1% suspension, 50 ul q 2 min × 6, right eye
[10] = time 0 min, baseline, 1% suspension topical to right eye

Row | SMILES | Lowering of IOP (in words) [1] | Paired t value of IOP change ([1]; 30 min) | Paired t value of IOP change ([1]; 90 min) | Average IOP change ([1]; 30 min) | Average IOP change ([1]; 60 min) | Average IOP change ([1]; 90 min) [mm Hg] | Average IOP change ([1]; 120 min) | Average difference in IOP between both eyes just prior to dosing [1] | Paired t value of IOP change ([2]; 60 min) | Paired t value of IOP change ([2]; 120 min) | IOP change, (IOPDET - IOPCET) - (IOPDEO - IOPCEO) ([2]; 30 min) | IOP change, (IOPDET - IOPCET) - (IOPDEO - IOPCEO) ([2]; 60 min) | drop in IOP (right eye) compared to no drug control [3] | IOP, right eye (R) [3, 4] [mmHg] | IOP, right eye (R) [3, 5] [mmHg] | IOP, right eye (R) [3, 6] [mmHg] | IOP, right eye (R) [3, 7] [mmHg] | IOP, right eye (R) [3, 8] [mmHg] | IOP, right eye (R) [3, 9] [mmHg] | IOP, right eye (R) [3, 10] [mmHg] | further results
1 | NS(=O)(=O)c1nc2ccc(Cl)cc2s1 [6-Chloro benzothiazole-2-sulfonamide, 6-Chloro-2-benzothiazolesulfonamide] | small but significant reduction of intraocular pressure; also recorded: statistically significant | -1.834 | -1.63 | -0.93 mm Hg | -1.27 mm Hg | -0.87 | -1.47 mm Hg | +0.27 mm Hg | -2.106 | -2.11 | -3 mm Hg and -5 mm Hg and +1 mm Hg and 0 mm Hg and -4 mm Hg and -1 mm Hg and -2 mm Hg and +2 mm Hg | -2 mm Hg and -4 mm Hg and +1 mm Hg and -3 mm Hg and +2 mm Hg and -1 mm Hg and +3 mm Hg | significant drop | 19.72 | 20.00 | 21.39 | 19.11 | 18.78 | 17.8 | 14.33 | Probability (1.t.) of IOP change ([1]; 30 min): 0.05; Probability (1.t.) of IOP change ([1]; 60 min): 0.025; Probability (1.t.) of IOP change ([1]; 90 min): 0.1; Probability (1.t.) of IOP change ([1]; 120 min): 0.025; IOP change, (IOPDET - IOPCET) - (IOPDEO - IOPCEO) ([2]; 90 min): -1 mm Hg and -2 mm Hg and +1 mm Hg and -3 mm Hg and +2 mm Hg and 0 mm Hg and +3 mm Hg; IOP change, (IOPDET - IOPCET) - (IOPDEO - IOPCEO) ([2]; 120 min): -2 mm Hg and -4 mm Hg and +3 mm Hg and -1 mm Hg and -5 mm Hg and 0 mm Hg and -6 mm Hg and +1 mm Hg; Difference in IOP between both eyes just prior to dosing (IOPDEO - IOPCEO) [2]: +1 mm Hg and +2 mm Hg and 0 mm Hg and +3 mm Hg and -2 mm Hg and -1 mm Hg and -3 mm Hg; Effectiveness in lowering IOP, comparison (in words) [2]: pharmacologically active (lowered IOP); Effectiveness (in words) ([3]; water loading model, topical): proved effective
2 | CCOc1ccc2nc(S(=O)(=O)NC)sc2c1 [6-Ethoxy-N-methyl-2-benzothiazolesulfonamide] |  |  |  |  |  |  |  |  |  |  |  |  | significant drop | 19.10 | 19.90 | 20.33 | 18.57 | 17.24 | 17.00 | 14.10 | 
3 | CCOc1ccc2nc(S(N)(=O)=O)sc2c1 [Ethoxzolamide, reference compound] | No lowering of IOP could be detected | 1.27 | 0.73 | -.17 mm Hg | +.33 mm Hg | -0 | +.17 mm Hg | +.67 mm Hg | 0.40 | 0.50 | +1 mm Hg and +2 mm Hg and -2 mm Hg and -3 mm Hg and 0 mm Hg | +3 mm Hg and -2 mm Hg and +2 mm Hg and +1 mm Hg and 0 mm Hg | no effect | 21.07 | 21.60 | 21.33 | 20.33 | 18.80 | 16.4 | 14.94 | Statistical significance of IOP change ([1]; 30 min): N.S.; Statistical significance of IOP change ([1]; 60 min): N.S.; Statistical significance of IOP change ([1]; 90 min): N.S.; Statistical significance of IOP change ([1]; 120 min): N.S.; IOP change, (IOPDET - IOPCET) - (IOPDEO - IOPCEO) ([2]; 90 min): +1 mm Hg and 0 mm Hg and +2 mm Hg and -2 mm Hg and -3 mm Hg; IOP change, (IOPDET - IOPCET) - (IOPDEO - IOPCEO) ([2]; 120 min): 0 mm Hg and -1 mm Hg and +2 mm Hg; Difference in IOP between both eyes just prior to dosing (IOPDEO - IOPCEO) [2]: +4 mm Hg and +1 mm Hg and -1 mm Hg and 0 mm Hg; Effectiveness in lowering IOP, comparison (in words) [2]: no effectiveness
